Experimental data taken from article PMC5057115, “Cathelicidins in the Tasmanian devil (Sarcophilus harrisii)” (Scientific Reports, 2016).
≈ marks a conversion by molar mass, not a printed value. Where a SMILES comes first, the peptide text is derived from it. Where no end group is shown, it is not given here.

Tests used:
human red blood cells = format: cell-based; conditions: red cells of human, 24 h
Experimental: Tissue expression of devil cathelicidin prepropeptides was determined by real-time PCR on a range of secretory, immune, reproductive, gastrointestinal and respiratory tissues, as well as BLAST searches of the milk transcriptome. Opportunistic tissue samples for real-time PCR were collected from Taronga Zoo (Sydney) from devils which were subject to euthanasia due to old age and advanced disease. […] Ltd. and their antimicrobial activity against bacterial and fungal pathogens determined by broth microdilution susceptibility assay according to clinical laboratory standards institute guidelines. Antimicrobial activity was expressed as minimum inhibitory concentration (MIC). Cytotoxicity was assessed in the human cell line A549 and haemolytic activity determined against human blood. Statistical significance of peptide effect on cell survival in comparison to the untreated control was calculated using a one sample t-test. Pouch microbiome analysis was performed on swabs from the pouch of lactating and non-lactating devils to detect changes in microbe populations. Pouch swab collection was carried out in accordance with the Save the Tasmanian Devil Program and was approved by the Animal Ethics Committee of the University of Sydney (permit number 681). page 3: […] Two antibiotics, ampicillin and tetracycline, were included as a positive control for bacteria, and the […] A well containing cells and media only was used as a “no drug” control to ensure that cultures grew normally. Bacteria were subcultured on Mueller Hinton agar (MHA) or Sheep blood agar (BA) for 24 hours at 35 °C for Staphylococcus spp., Pseudomonas spp., Enterococcus spp. and E.coli, with 5% CO2 for Streptococcus spp., K.pneumoniae, P.multocida, […] Similarly, fungi were subcultured on Sabouraud agar (SAB) at 35 °C for 24 hours prior to the test. Colonies were resuspended in saline and the OD530 measured with a McFarland reader. If necessary the suspension was diluted to 0.45-0.55 McFarland units with saline. […] Assays Antimicrobial activity was expressed as minimum inhibitory concentration (MIC), which was defined as the lowest concentration of cathelicidin preventing visible growth, relative to the negative control. Colonies which grew on agar plates were also counted. Cytotoxicity Cytotoxicity was assessed in the human A549 cell line maintained in Dulbecco’s Modification of Eagle’s Medium (DMEM) supplemented with 10% foetal bovine serum (FBS), 2mM L -glutamine, 50units/mL penicillin and 50μg/mL streptomycin. […] Following incubation for a further 24 hours, cell viability was determined using alamar blue (Invitrogen) which was added to each well. […]

E. faecalis ATCC 29212 = assay: microbe, parasite or virus in culture; format: cell-based, Enterococcus faecalis; conditions: Enterococcus faecalis, ATCC29212; broth microdilution (CLSI), 64 to 0.125 μg/mL, 24 h at 35 °C; ATCC strain; read-out: MIC
Experimental: (§1) Tissue expression of devil cathelicidin prepropeptides was determined by real-time PCR on a range of secretory, immune, reproductive, gastrointestinal and respiratory tissues, as well as BLAST searches of the milk transcriptome. Opportunistic tissue samples for real-time PCR were collected from Taronga Zoo (Sydney) from devils which were subject to euthanasia due to old age and advanced disease. The mature peptides of all six devil cathelicidins were synthesised by ChinaPeptides Co. Ltd. and their antimicrobial activity against bacterial and fungal pathogens determined by broth microdilution susceptibility assay according to clinical laboratory standards institute guidelines. Antimicrobial activity was expressed as minimum inhibitory concentration (MIC). Cytotoxicity was assessed in the human cell line A549 and haemolytic activity determined against human blood. Statistical significance of peptide effect on cell survival in comparison to the untreated control was calculated using a one sample t-test. Pouch microbiome analysis was performed on swabs from the pouch of lactating and non-lactating devils to detect changes in microbe populations. Pouch swab collection was carried out in accordance with the Save the Tasmanian Devil Program and was approved by the Animal Ethics Committee of the University of Sydney (permit number 681). […]
(§2) base (YNB) for fungi, from a concentration of 64μg/mL to 0.125μg/mL in a final volume of 100 μL .
(§3) Two antibiotics, ampicillin and tetracycline, were included as a positive control for bacteria, and the antifungal drug fluconazole for fungi. A well containing cells and media only was used as a “no drug” control to ensure that cultures grew normally. Bacteria were subcultured on Mueller Hinton agar (MHA) or Sheep blood agar (BA) for 24 hours at 35 °C for Staphylococcus spp., Pseudomonas spp., Enterococcus spp. and E.coli, with 5% CO2 for Streptococcus spp., K.pneumoniae, P.multocida, L.monocytogenes and N.asteroides. Similarly, fungi were subcultured on Sabouraud agar (SAB) at 35 °C for 24 hours prior to the test. Colonies were resuspended in saline and the OD530 measured with a McFarland reader. If necessary the suspension was diluted to 0.45-0.55 McFarland units with saline. […] Assays Antimicrobial activity was expressed as minimum inhibitory concentration (MIC), which was defined as the lowest concentration of cathelicidin preventing visible growth, relative to the negative control. […]
(§4) 570nm and 620nm using the Victor 3 multilabel plate reader (PerkinElmer). […] To x i city of cathelicidins was calculated according to Invitrogen recommendations and expressed as percentage cell survival compared to the untreated growth control. […]
(§5) Haemolytic activity was assessed using 10mL of human blood collected into potassium -ED T A vacutainers (BD). […]

E. coli ATCC 25922 = assay: microbe, parasite or virus in culture; format: cell-based, Escherichia coli; conditions: Escherichia coli, ATCC25922; broth microdilution (CLSI), 64 to 0.125 μg/mL, 24 h at 35 °C, lowest concentration preventing visible growth; ATCC strain; read-out: MIC
Experimental: as §1, §2, §3, §4, §5

S. pneumoniae ATCC 49619 = assay: microbe, parasite or virus in culture; format: cell-based; conditions: Streptococcus pneumoniae, ATCC49619; broth microdilution (CLSI), 64 to 0.125 μg/mL, 24 h at 35 °C with 5% CO2; ATCC strain; read-out: MIC
Experimental: as §1, §2
(§6) Two antibiotics, ampicillin and tetracycline, were included as a positive control for bacteria, and the antifungal drug fluconazole for fungi. A well containing cells and media only was used as a “no drug” control to ensure that cultures grew normally. Bacteria were subcultured on Mueller Hinton agar (MHA) or Sheep blood agar (BA) for 24 hours at 35 °C for Staphylococcus spp., Pseudomonas spp., Enterococcus spp. and E.coli, with 5% CO2 for Streptococcus spp., K.pneumoniae, P.multocida, L.monocytogenes and N.asteroides. Similarly, fungi were subcultured on Sabouraud agar (SAB) at 35 °C for 24 hours prior to the test. Colonies were resuspended in saline and the OD530 measured with a McFarland reader. If necessary the suspension was diluted to 0.45-0.55 McFarland units with saline. Following a 1:150 dilution for bacteria and twostep dilution for fungi (1:50, 1:20), 100 μL of microorganisms (1x106 – 5 x10^5 cells/mL) were pipetted into wells 2-12, the first well acting as a negative control. Colony counts were performed using a 1:1000 dilution for bacteria and 1:10 for fungi spread onto MHA/BA or SAB plates respectively. The 96 well microdilution and agar plates were incubated for 24 hours at 35 °C (Escherichia coli, Staphylococcus spp., Enterococcus spp. and Pseudomonas spp.), with 5% CO2 (Streptococcus spp. Pasteurella multocida, Klebsiella pneumoniae, Listeria monocytogenes a nd Nocardia asteroids) for bacteria, and 35 °C for 48 hours (Candida spp .) or 72 hours (Cryptococcus spp.) for fungi. Assays Antimicrobial activity was expressed as minimum inhibitory concentration (MIC), which was defined as the lowest concentration of cathelicidin preventing visible growth, relative to the negative control. […]
(§7) DMEM and positive control of dimethylsulfoxide (DMSO) (1%) were also included. […]
(§8) 570nm and 620nm using the Victor 3 multilabel plate reader (PerkinElmer). The assay was performed on two separate occasions. To x i city of cathelicidins was calculated according to Invitrogen recommendations and expressed as percentage cell survival compared to the untreated growth control. A significant difference between cathelicidin treated and control cell survival was tested using a o ne sample t-test (p<0.05).
(§9) Haemolytic activity was assessed using 10mL of human blood collected into potassium -ED T A vacutainers (BD). The blood was washed three times with 30mL of calcium and magnesium -free Dulbecco’s phosphate buffered saline (DPBS) and cells were collected by centrifugation at 2000 x g […]
(§10) for 10 minutes. […]

[1] = tested on: C. parapsilosis ATCC 22019; assay: microbe, parasite or virus in culture; format: cell-based; conditions: Lodderomyces parapsilosis, ATCC22019; broth microdilution (CLSI), YNB, 64 to 0.125 μg/mL, 48 hours at 35 °C; ATCC strain; read-out: MIC
Experimental: as §1, §2, §6, §7, §8, §9, §10

P. aeruginosa ATCC 27853 = assay: microbe, parasite or virus in culture; format: cell-based, Pseudomonas aeruginosa; conditions: Pseudomonas aeruginosa, ATCC27853; broth microdilution (CLSI), 64 to 0.125 μg/mL, 24 h at 35 °C; ATCC strain; read-out: MIC
Experimental: as §1, §2, §3, §4, §5

S. aureus ATCC 29213 = assay: microbe, parasite or virus in culture; format: cell-based, Staphylococcus aureus; conditions: Staphylococcus aureus, ATCC29213; broth microdilution (CLSI), 64 to 0.125 μg/mL, 24 h at 35 °C; ATCC strain; read-out: MIC
Experimental: as §1, §2, §3, §4, §5

[2] = tested on: 25 bacterial and 6 fungal strains; format: cell-based; conditions: against the bacteria and fungi tested (25 bacterial and 6 fungal strains of Table 2), broth microdilution (CLSI)
Text: To assess the antimicrobial activity of devil cathelicidins, we tested synthesized mature peptides on 25 bacterial and 6 fungal strains (Table 2). As there were no Tasmanian devil specific isolates available, human and veterinary strains were used. The antimicrobial activity of Tasmanian devil cathelicidin mature peptides Saha-CATH1 to 6 against bacteria and fungi is summarised in Table 2. […] As such, these values are not included in Table 2. Saha-CATH3 had highly specific activity, as it was unable to kill any bacteria, but killed Cryptococcus neoformans. […]
Tissue expression of devil cathelicidin prepropeptides was determined by real-time PCR on a range of secretory, immune, reproductive, gastrointestinal and respiratory tissues, as well as BLAST searches of the milk transcriptome. […] The mature peptides of all six devil cathelicidins were synthesised by ChinaPeptides Co. Ltd. and their antimicrobial activity against bacterial and fungal pathogens determined by broth microdilution susceptibility assay according to clinical laboratory standards institute guidelines. Antimicrobial activity was expressed as minimum inhibitory concentration (MIC). Cytotoxicity was assessed in the human cell line A549 and haemolytic activity determined against human blood. Statistical significance of peptide effect on cell survival in comparison to the untreated control was calculated using a one sample t-test. […]

CC[C@H](C)[C@H](NC(=O)CN)C(=O)N[C@@H](CCCCN)C(=O)N[C@@H](Cc1c[nH]cn1)C(=O)N[C@H](C(=O)N[C@@H](CC(C)C)C(=O)N[C@@H](Cc1ccccc1)C(=O)N[C@@H](CCSC)C(=O)N[C@@H](C)C(=O)N[C@@H](CCCCN)C(=O)N[C@H](C(=O)N[C@@H](CCCCN)C(=O)N[C@@H](CC(C)C)C(=O)N1CCC[C@H]1C(=O)N[C@@H](CCCNC(=N)N)C(=O)N[C@@H](C)C(=O)N[C@H](C(=O)N[C@@H](CS)C(=O)N[C@H](C(=O)N[C@@H](C)C(=O)N[C@@H](CCC(=O)O)C(=O)N[C@H](C(=O)N[C@@H](CCCCN)C(=O)N[C@@H](CCC(=O)O)C(=O)N[C@@H](CC(N)=O)C(=O)N[C@@H](CS)C(=O)N[C@@H](CC(=O)O)C(=O)N[C@@H](CCCNC(=N)N)C(=O)N[C@@H](CCCCN)C(=O)N[C@@H](CCCCN)C(=O)O)[C@@H](C)CC)[C@@H](C)O)[C@@H](C)O)[C@@H](C)O)[C@@H](C)CC [Saha-CATH1] (H-GIKHILFMAKTKLPRATCTAEIKENCDRKK-OH; N-terminus and C-terminus assumed)
haemolysis compared with the positive control (human red blood cells): below 7%

CC1(C)S[C@@H]2[C@H](NC(=O)[C@H](N)c3ccccc3)C(=O)N2[C@H]1C(=O)O [ampicillin, reference compound]
MIC (E. faecalis ATCC 29212): 1 µg/mL (≈ 2.86 µM) | MIC (E. coli ATCC 25922): 8 µg/mL (≈ 22.9 µM) | MIC (S. pneumoniae ATCC 49619): 0.125 µg/mL (≈ 0.358 µM)

OC(Cn1cncn1)(Cn1cncn1)c1ccc(F)cc1F [fluconazole, reference compound]
MIC [1]: 2 µg/mL (≈ 6.53 µM)

CN(C)[C@@H]1C(O)=C(C(N)=O)C(=O)[C@@]2(O)C(O)=C3C(=O)c4c(O)cccc4[C@@](C)(O)[C@H]3C[C@@H]12 [tetracycline, reference compound]
MIC (P. aeruginosa ATCC 27853): 8 µg/mL (≈ 18 µM) | MIC (S. aureus ATCC 29213): 0.125 µg/mL (≈ 0.281 µM)

KREDFLDQIIRDFRNFIYQKYRRLRDEFRKLRDILSG [Saha-CATH4]
minimum inhibitory concentration (MIC) [2]: greater than 64 μg/mL | haemolysis compared with the positive control (human red blood cells): below 7%

TFKRKNGSRKNGHRPGGYSLIALGNKKVLKAPYMESI [Saha-CATH2]
minimum inhibitory concentration (MIC) [2]: greater than 64 μg/mL | haemolysis compared with the positive control (human red blood cells): below 7%
